Data: ChEMBL document CHEMBL3112450, “Synthesis and in vitro antitumor evaluation of primary amine substituted quinazoline linked benzimidazole” (Bioorg Med Chem Lett, 2014)

Legend:
Format in all cases: functional
[1] = test system: T47D; assay: Cytotoxicity against human T47D cells assessed as growth inhibition at 10 uM after 48 hrs by SRB assay; details: read-out: GI
[2] = test system: BT-549; assay: Cytotoxicity against human BT549 cells assessed as cell growth at 10^-7 M after 48 hrs by SRB assay; details: BT-549, 48 h, read-out: Activity
[3] = test system: SR; assay: Cytotoxicity against human SR cells assessed as cell growth at 10^-4 M after 48 hrs by SRB assay; details: read-out: Activity
[4] = test system: HCT-116; assay: Cytotoxicity against human HCT116 cells assessed as cell growth at 10^-6 M after 48 hrs by SRB assay; details: HCT-116, 48 h, read-out: Activity
[5] = test system: SK-MEL-28; assay: Cytotoxicity against human SK-MEL-28 cells assessed as cell growth at 10^-8 M after 48 hrs by SRB assay; details: SK-MEL-28, 48 h, read-out: Activity
[6] = test system: SR; assay: Cytotoxicity against human SR cells assessed as cell growth at 10^-6 M after 48 hrs by SRB assay; details: read-out: Activity
[7] = test system: HCC 2998; assay: Cytotoxicity against human HCC2998 cells after 48 hrs by SRB assay; details: HCC 2998, 48 h
[8] = test system: OVCAR-3; assay: Cytotoxicity against human OVCAR3 cells assessed as cell growth at 10^-7 M after 48 hrs by SRB assay; details: OVCAR-3, 48 h, read-out: Activity
[9] = test system: NCI-H226; assay: Cytotoxicity against human NCI-H226 cells after 48 hrs by SRB assay; details: NCI-H226, 48 h
[10] = test system: CAKI-1; assay: Cytotoxicity against human Caki1 cells assessed as cell growth at 10^-7 M after 48 hrs by SRB assay; details: CAKI-1, 48 h, read-out: Activity
[11] = test system: NCI-H460; assay: Cytotoxicity against human NCI-H460 cells assessed as cell growth at 10^-6 M after 48 hrs by SRB assay; details: NCI-H460, 48 h, read-out: Activity
[12] = test system: NCI-H460; assay: Cytotoxicity against human NCI-H460 cells assessed as cell growth at 10^-8 M after 48 hrs by SRB assay; details: NCI-H460, 48 h, read-out: Activity
[13] = test system: CAKI-1; assay: Cytotoxicity against human Caki1 cells after 48 hrs by SRB assay; details: CAKI-1, 48 h
[14] = test system: MDA-MB-231; assay: Cytotoxicity against human MDA-MB-231 cells assessed as cell growth at 10^-7 M after 48 hrs by SRB assay; details: MDA-MB-231, 48 h, read-out: Activity
[15] = Cytotoxicity against human OVCAR4 cells after 48 hrs by SRB assay; details: OVCAR-4, 48 h
[16] = test system: NCI-H226; assay: Cytotoxicity against human NCI-H226 cells assessed as cell growth at 10^-6 M after 48 hrs by SRB assay; details: NCI-H226, 48 h, read-out: Activity
[17] = test system: SK-MEL-28; assay: Cytotoxicity against human SK-MEL-28 cells assessed as cell growth at 10^-7 M after 48 hrs by SRB assay; details: SK-MEL-28, 48 h, read-out: Activity
[18] = test system: SR; assay: Cytotoxicity against human SR cells assessed as cell growth at 10^-8 M after 48 hrs by SRB assay; details: read-out: Activity
[19] = Cytotoxicity against human NCI-ADR-RES cells assessed as cell growth at 10^-4 M after 48 hrs by SRB assay; details: read-out: Activity
[20] = test system: MDA-MB-435; assay: Cytotoxicity against human MDA-MB-435 cells assessed as cell growth at 10^-8 M after 48 hrs by SRB assay; details: MDA-MB-435, 48 h, read-out: Activity
[21] = test system: T47D; assay: Cytotoxicity against human T47D cells assessed as cell growth at 10^-7 M after 48 hrs by SRB assay; details: read-out: Activity
[22] = test system: U-251; assay: Cytotoxicity against human U251 cells after 48 hrs by SRB assay; details: U-251, 48 h
[23] = test system: ACHN; assay: Cytotoxicity against human ACHN cells assessed as cell growth at 10^-7 M after 48 hrs by SRB assay; details: read-out: Activity
[24] = test system: HOP-62; assay: Cytotoxicity against human HOP62 cells after 48 hrs by SRB assay; details: HOP-62, 48 h
[25] = test system: RXF 393; assay: Cytotoxicity against human RXF393 cells assessed as cell growth at 10^-4 M after 48 hrs by SRB assay; details: RXF 393, 48 h, read-out: Activity
[26] = test system: NCI-H23; assay: Cytotoxicity against human NCI-H23 cells assessed as cell growth at 10^-8 M after 48 hrs by SRB assay; details: NCI-H23, 48 h, read-out: Activity
[27] = test system: IGROV-1; assay: Cytotoxicity against human IGROV1 cells assessed as cell growth at 10^-4 M after 48 hrs by SRB assay; details: IGROV-1, 48 h, read-out: Activity
[28] = Cytotoxicity against human Hs578T cells assessed as cell growth at 10^-6 M after 48 hrs by SRB assay; details: Hs-578T, read-out: Activity
[29] = test system: BT-549; assay: Cytotoxicity against human BT549 cells after 48 hrs by SRB assay; details: BT-549, 48 h
[30] = test system: NCI-H23; assay: Cytotoxicity against human NCI-H23 cells assessed as cell growth at 10^-4 M after 48 hrs by SRB assay; details: NCI-H23, 48 h, read-out: Activity
[31] = test system: HCT-15; assay: Cytotoxicity against human HCT15 cells assessed as cell growth at 10^-8 M after 48 hrs by SRB assay; details: HCT-15, 48 h, read-out: Activity
[32] = test system: U-251; assay: Cytotoxicity against human U251 cells assessed as cell growth at 10^-8 M after 48 hrs by SRB assay; details: U-251, 48 h, read-out: Activity
[33] = test system: SNB-19; assay: Cytotoxicity against human SNB19 cells after 48 hrs by SRB assay; details: SNB-19, 48 h
[34] = test system: BT-549; assay: Cytotoxicity against human BT549 cells assessed as cell growth at 10^-4 M after 48 hrs by SRB assay; details: BT-549, 48 h, read-out: Activity
[35] = Cytotoxicity against human UACC257 cells assessed as cell growth at 10^-6 M after 48 hrs by SRB assay; details: UACC-257, 48 h, read-out: Activity
[36] = test system: HCT-116; assay: Cytotoxicity against human HCT116 cells assessed as growth inhibition at 10 uM after 48 hrs by SRB assay; details: HCT-116, 48 h, read-out: GI
[37] = test system: A549; assay: Cytotoxicity against human A549 cells assessed as cell growth at 10^-6 M after 48 hrs by SRB assay; details: A549, 48 h, read-out: Activity
[38] = Cytotoxicity against human UO31 cells assessed as growth inhibition at 10 uM after 48 hrs by SRB assay; details: UO-31, 48 h, read-out: GI
[39] = test system: NCI-H23; assay: Cytotoxicity against human NCI-H23 cells assessed as growth inhibition at 10 uM after 48 hrs by SRB assay; details: NCI-H23, 48 h, read-out: GI
[40] = read-out: LC50 (the source's name)

C=CCn1c(C)nc2ccc(Nc3nc(Nc4ncccn4)nc4ccccc34)cc21
inhibition of growth at 10 µM [1]: 40%

C=CCn1c(C)nc2cc(Nc3nc(Nc4ccc5nc(C)n(CC=C)c5c4)c4ccccc4n3)ccc21
growth at 0.1 µM [2]: 101%
growth at 100 µM [3]: 2%
growth at 1 µM [4]: -54%
growth at 0.01 µM [5]: 108%
growth at 1 µM [6]: -23%
GI50 [7]: 1.2 µM
LC50 (50% lethal concentration) [7]: 5.03 µM
TGI [7]: 2.45 µM
growth at 0.1 µM [8]: 101%
GI50 [9]: 2.03 µM
LC50 [9]: > 100 µM
TGI [9]: 5.04 µM
growth at 0.1 µM [10]: 97%
growth at 1 µM [11]: -53%
growth at 0.01 µM [12]: 102%
GI50 [13]: 1.61 µM
LC50 (concentration causing 50% net cell kill) [13]: 5.69 µM
TGI [13]: 3.03 µM
growth at 0.1 µM [14]: 101%
GI50 [15]: 0.276 µM
TGI [15]: 0.73 µM
growth at 1 µM [16]: 89%
growth at 0.1 µM [17]: 106%
growth at 0.01 µM [18]: 95%
growth at 100 µM [19]: -24%
growth at 0.01 µM [20]: 97%
growth at 0.1 µM [21]: 94%
GI50 [22]: 0.177 µM
TGI [22]: 0.331 µM
growth at 0.1 µM [23]: 103%
GI50 [24]: 0.232 µM
TGI [24]: 0.552 µM
growth at 100 µM [25]: -31%
growth at 0.01 µM [26]: 95%
growth at 100 µM [27]: -43%
growth at 1 µM [28]: 94%
GI50 [29]: 1.68 µM
TGI [29]: 3.1 µM
growth at 100 µM [30]: -28%
growth at 0.01 µM [31]: 101%
growth at 0.01 µM [32]: 97%
GI50 [33]: 1.08 µM
TGI [33]: 2.62 µM
growth at 100 µM [34]: -46%

C=CCn1c(C)nc2ccc(Nc3nc(Nc4ccc(F)cc4)nc4ccccc34)cc21
growth at 0.1 µM [2]: 94%
growth at 100 µM [3]: -22%
growth at 1 µM [4]: 88%
growth at 1 µM [35]: 92%
growth at 0.01 µM [5]: 95%
growth at 1 µM [6]: 92%
GI50 [7]: 8.87 µM
LC50 (50% lethal concentration) [7]: 58.2 µM
TGI [7]: 23.5 µM
growth at 0.1 µM [8]: 98%
GI50 [9]: 1.78 µM
TGI [9]: 3.85 µM
growth at 0.1 µM [10]: 102%
growth at 1 µM [11]: 88%
growth at 0.01 µM [12]: 100%
GI50 [13]: 6.86 µM
LC50 (concentration causing 50% net cell kill) [13]: 92.6 µM
TGI [13]: 27.5 µM
growth at 0.1 µM [14]: 98%
inhibition of growth at 10 µM [1]: 50%
inhibition of growth at 10 µM [36]: 70%
GI50 [15]: 2.06 µM
LC50 [15]: > 100 µM
TGI [15]: 5.81 µM
growth at 1 µM [16]: 87%
growth at 0.1 µM [17]: 102%
growth at 0.01 µM [18]: 98%
growth at 100 µM [19]: -15%
growth at 0.01 µM [20]: 97%
growth at 0.1 µM [21]: 85%
GI50 [22]: 3.15 µM
TGI [22]: 14.9 µM
CC50 [22, 40]: 48.9 µM
growth at 0.1 µM [23]: 97%
GI50 [24]: 1.88 µM
TGI [24]: 3.76 µM
growth at 1 µM [37]: 89%
inhibition of growth at 10 µM [38]: 50%
growth at 100 µM [25]: -56%
inhibition of growth at 10 µM [39]: 40%
growth at 0.01 µM [26]: 94%
growth at 100 µM [27]: -51%
growth at 1 µM [28]: 86%
GI50 [29]: 3.35 µM
LC50 [29]: 73.1 µM
TGI [29]: 18.1 µM
growth at 100 µM [30]: -39%
growth at 0.01 µM [31]: 99%
growth at 0.01 µM [32]: 97%
GI50 [33]: 9 µM
TGI [33]: 23.8 µM
CC50 [33, 40]: 58.6 µM
growth at 100 µM [34]: -61%

C=CCn1c(C)nc2ccc(Nc3nc(Sc4ccc(N)cc4)nc4ccccc34)cc21
inhibition of growth at 10 µM [1]: 30%

C=CCn1c(C)nc2cc(Nc3nc(NCCO)nc4ccccc34)ccc21
inhibition of growth at 10 µM [1]: 30%
inhibition of growth at 10 µM [36]: 30%
inhibition of growth at 10 µM [38]: 30%

C=CCn1c(C)nc2ccc(Nc3nc(Nc4ccc5nc(C)n(CC=C)c5c4)c4ccccc4n3)cc21
growth at 0.1 µM [2]: 95%
growth at 100 µM [3]: -2%
growth at 1 µM [4]: 74%
growth at 1 µM [35]: 84%
growth at 0.01 µM [5]: 98%
growth at 1 µM [6]: 72%
GI50 [7]: 1.72 µM
LC50 (50% lethal concentration) [7]: 5.56 µM
TGI [7]: 3.09 µM
growth at 0.1 µM [8]: 96%
GI50 [9]: 1.75 µM
TGI [9]: 3.31 µM
growth at 0.1 µM [10]: 90%
growth at 1 µM [11]: 97%
growth at 0.01 µM [12]: 102%
GI50 [13]: 1.72 µM
TGI [13]: 3.36 µM
growth at 0.1 µM [14]: 87%
GI50 [15]: 1.53 µM
TGI [15]: 2.87 µM
growth at 1 µM [16]: 94%
growth at 0.1 µM [17]: 95%
growth at 0.01 µM [18]: 97%
growth at 100 µM [19]: -18%
growth at 0.01 µM [20]: 100%
growth at 0.1 µM [21]: 92%
GI50 [22]: 1.62 µM
TGI [22]: 2.97 µM
growth at 0.1 µM [23]: 92%
GI50 [24]: 1.63 µM
TGI [24]: 2.98 µM
growth at 1 µM [37]: 93%
growth at 100 µM [25]: -31%
inhibition of growth at 10 µM [39]: 50%
growth at 0.01 µM [26]: 96%
growth at 100 µM [27]: -25%
growth at 1 µM [28]: 81%
GI50 [29]: 1.62 µM
TGI [29]: 3.16 µM
growth at 100 µM [30]: -42%
growth at 0.01 µM [31]: 96%
growth at 0.01 µM [32]: 96%
GI50 [33]: 1.69 µM
TGI [33]: 3.56 µM
growth at 100 µM [34]: -32%
